Assay results: patent US9290467B2, “Cyclic amides” (Hoffmann-La Roche Inc., priority 2012, dated 2016)

These compounds were tested against Cathepsin L (Homo sapiens (Human), UniProt P07711) (assay: Cathepsin enzyme inhibition assay (fluorogenic peptide substrate Z-Val-Val-Arg-AMC)). Details: enzyme 1 nM, substrate 20 μM, pH 6.5.
Type: biochemical
Description: Enzyme activity is measured by observing the increase in fluorescence intensity caused by cleavage of a peptide substrate containing a fluorophore whose emission is quenched in the intact peptide.
Assay buffer: 100 mM potassium phosphate pH 6.5, EDTA-Na 5 mM, Triton X-100 0.001%, DDT 5 mM.
Enzymes (all at 1 nM): human and mouse Cathepsin S, Cat K, Cat B, Cat L
Substrate (20 μM): Z-Val-Val-Arg-AMC, except for Cat K which uses Z-Leu-Arg-AMC (both from Bachem).
AMC=7-Amino-4-Methyl-Coumarin.
Excitation 360 nm, Emission 465 nm.
Enzyme is added to the substance dilutions in 96-well microtitre plates and the reaction is started with substrate. […] IC50 are calculated by standard methods. The results are expressed in μM in the following table.

Sequence of Cathepsin L (P07711 114-333): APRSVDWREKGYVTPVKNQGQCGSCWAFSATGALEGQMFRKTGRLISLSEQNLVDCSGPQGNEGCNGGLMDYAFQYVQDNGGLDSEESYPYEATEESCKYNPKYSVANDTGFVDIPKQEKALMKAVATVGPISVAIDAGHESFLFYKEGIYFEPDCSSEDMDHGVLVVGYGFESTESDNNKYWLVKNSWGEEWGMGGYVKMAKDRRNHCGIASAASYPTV

Compared with `N#CC1(NC(=O)[C@@H]2Cc3ccc(c(Cl)c3)OCCCCOc3cc(C(F)(F)F)ccc3C(=O)N2)CC1` [Example 23, (S)-19-Chloro-5-oxo-9-trifluoromethyl-12,17-dioxa-4-aza-tricyclo[16.2.2.0*6,11*]docosa-1(21),6,8,10,18(22),19-hexaene-3-carboxylic acid (1-cyano-cyclopropyl)-amide], `N#CC1(NC(=O)[C@@H]2Cc3ccc(c(Cl)c3)OCCCCOc3ccc(C(F)(F)F)cc3C(=O)N2)CC1` [Example 37, (S)-19-Chloro-5-oxo-8-trifluoromethyl-12,17-dioxa-4-aza-tricyclo[16.2.2.0*6,11*]docosa-1(21),6,8,10,18(22),19-hexaene-3-carboxylic acid (1-cyano-cyclopropyl)-amide] is 5.6-fold lower in IC50: 50 nM for the first, 9 nM for the second. The second is the more potent here.

Going from `N#CC1(NC(=O)[C@@H]2Cc3ccc(c(I)c3)OC/C=C/COc3ccccc3C(=O)N2)CC1` [Example 24, (E)-(S)-19-Iodo-5-oxo-12,17-dioxa-4-aza-tricyclo[16.2.2.*6,11*]docosa-1(21),6,8,10,14,18(22),19-heptaene-3-carboxylic acid (1-cyano-cyclopropyl)-amide] to `N#CC1(NC(=O)[C@@H]2Cc3ccc(c(I)c3)OC/C=C/COc3ccc(Cl)cc3C(=O)N2)CC1` [Example 28, (E)-(S)-8-Chloro-19-iodo-5-oxo-12,17-dioxa-4-aza-tricyclo[16.2.2.0*6,11*]docosa-1(21),6,8,10,14,18(22),19-heptaene-3-carboxylic acid (1-cyano-cyclopropyl)-amide], the IC50 falls from 164 nM to 11 nM (15-fold).

`N#CC1(NC(=O)[C@@H]2Cc3ccc(c(I)c3)OC/C=C/COc3ccccc3C(=O)N2)CC1` [Example 25, (E)-(S)-19-Iodo-5-oxo-12,17-dioxa-4-aza-tricyclo[16.2.2.0*6,11*]docosa-1(21),6,8,10,14,18(22),19-heptaene-3-carboxylic acid (1-cyano-cyclopropyl)-amide, stereoaxis R] and `N#CC1(NC(=O)[C@@H]2Cc3ccc(c(I)c3)OCCCCOc3ccccc3C(=O)N2)CC1` [Example 30, (S)-19-Iodo-5-oxo-12,17-dioxa-4-aza-tricyclo[16.2.2.0*6,11*]docosa-1(21),6(11),7,9,18(22),19-hexaene-3-carboxylic acid (1-cyano-cyclopropyl)-amide] are within 1.5-fold of each other in IC50: 236 nM for the first, 181 nM for the second.

Compared with `N#CC1(NC(=O)[C@@H]2Cc3ccc(c(I)c3)OC/C=C/COc3ccccc3C(=O)N2)CC1` [Example 26, (E)-(S)-19-Iodo-5-oxo-12,17-dioxa-4-aza-tricyclo[16.2.2.0*6,11*]docosa-1(21),6,8,10,14,18(22),19-heptaene-3-carboxylic acid (1-cyano-cyclopropyl)-amide, stereoaxis S], `N#CC1(NC(=O)[C@@H]2Cc3ccc(c(Cl)c3)OC/C=C/COc3ccc(F)cc3C(=O)N2)CC1` [Example 32, (E)-(S)-19-Chloro-8-fluoro-5-oxo-12,17-dioxa-4-aza-tricyclo[16.2.2.0*6,11*]docosa-1(21),6,8,10,14,18(22),19-heptaene-3-carboxylic acid (1-cyano-cyclopropyl)-amide] is 8.7-fold lower in IC50: 139 nM for the first, 16 nM for the second.

`N#CC1(NC(=O)[C@@H]2Cc3ccc(c(Cl)c3)OC/C=C/COc3cc4c(cc3C(=O)N2)CCCC4)CC1` [Example 27, (3E,12S)-22-chloro-N-(1-cyanocyclopropyl)-14-oxo-2,5,11,12,13,14,16,17,18,19-decahydro-7,10-ethenonaphtho[2,3-b][1,12,5]dioxazacyclohexadecine-12-carboxamide] and `N#CC1(NC(=O)[C@@H]2Cc3ccc(c(Cl)c3)OCCCCOc3cc4c(cc3C(=O)N2)CCCC4)CC1` [Example 29, (12S)-22-chloro-N-(1-cyanocyclopropyl)-14-oxo-2,3,4,5,11,12,13,14,16,17,18,19-dodecahydro-7,10-ethenonaphtho[2,3-b][1,12,5]dioxazacyclohexadecine-12-carboxamide] are within 1.5-fold of each other in IC50: 16 nM for the first, 13 nM for the second.

Going from `N#CC1(NC(=O)[C@@H]2Cc3ccc(c(I)c3)OCCCCOc3ccc(Cl)cc3C(=O)N2)CC1` [Example 31, (S)-8-Chloro-19-iodo-5-oxo-12,17-dioxa-4-aza-tricyclo[16.2.2.0*6,11*]docosa-1(21),6(11),7,9,18(22),19-hexaene-3-carboxylic acid (1-cyano-cyclopropyl)-amide] to `N#CC1(NC(=O)[C@@H]2Cc3ccc(c(Cl)c3)OCCCCOc3ccc(F)cc3C(=O)N2)CC1` [Example 35, (S)-19-Chloro-8-fluoro-5-oxo-12,17-dioxa-4-aza-tricyclo[16.2.2.0*6,11*]docosa-1(21),6,8,10,18(22),19-hexaene-3-carboxylic acid (1-cyano-cyclopropyl)-amide], the IC50 rises from 12 nM to 23 nM (1.9-fold). The first is the more potent here.

Going from `N#CC1(NC(=O)[C@@H]2Cc3ccc(c(Cl)c3)OC/C=C/COc3cc(Cl)ccc3C(=O)N2)CC1` [Example 33, (E)-(S)-9,19-Dichloro-5-oxo-12,17-dioxa-4-aza-tricyclo[16.2.2.0*6,11*]docosa-1(21),6,8,10,14,18(22),19-heptaene-3-carboxylic acid (1-cyano-cyclopropyl)-amide] to `N#CC1(NC(=O)[C@@H]2Cc3ccc(c(Cl)c3)OC/C=C/COc3ccc(C4CNC4)cc3C(=O)N2)CC1` [Example 41, (E)-(S)-8-Azetidin-3-yl-19-chloro-5-oxo-12,17-dioxa-4-aza-tricyclo[16.2.2.0*6,11*]docosa-1(21),6,8,10,14,18(22),19-heptaene-3-carboxylic acid (1-cyano-cyclopropyl)-amide], the IC50 falls from 73 nM to 5.2 nM (14-fold).

Going from `N#CC1(NC(=O)[C@@H]2Cc3ccc(c(Cl)c3)OC/C=C/COc3ccc(C(F)(F)F)cc3C(=O)N2)CC1` [Example 34, (E)-(S)-19-Chloro-5-oxo-8-trifluoromethyl-12,17-dioxa-4-aza-tricyclo[16.2.2.0*6,11*]docosa-1(21),6,8,10,14,18(22),19-heptaene-3-carboxylic acid (1-cyano-cyclopropyl)-amide] to `CC(C)(C)OC(=O)N1CC(c2ccc3c(c2)C(=O)N[C@H](C(=O)NC2(C#N)CC2)Cc2ccc(c(Cl)c2)OC/C=C/CO3)C1` [Example 39, 3-[(E)-(S)-19-Chloro-3-(1-cyano-cyclopropylcarbamoyl)-5-oxo-12,17-dioxa-4-aza-tricyclo[16.2.2.0*6,11*]docosa-1(21),6,8,10,14,18(22),19-heptaen-8-yl]-azetidine-1-carboxylic acid tert-butyl ester], the IC50 rises from 9 nM to 26.2 nM (2.9-fold). The first is the more potent here.

Going from `N#CC1(NC(=O)[C@@H]2Cc3ccc(c(Cl)c3)OCCCCOc3cc(Cl)ccc3C(=O)N2)CC1` [Example 36, (S)-9,19-Dichloro-5-oxo-12,17-dioxa-4-aza-tricyclo[16.2.2.0*6,11*]docosa-1(21),6,8,10,18(22),19-hexaene-3-carboxylic acid (1-cyano-cyclopropyl)-amide] to `N#CC1(NC(=O)[C@@H]2Cc3ccc(c(Cl)c3)OC/C=C/CNc3ccc(Br)cc3C(=O)N2)CC1` [Example 38, (E)-(S)-8-Bromo-19-chloro-5-oxo-17-oxa-4,12-diaza-tricyclo[16.2.2.0*6,11*]docosa-1(21),6,8,10,14,18(22),19-heptaene-3-carboxylic acid (1-cyano-cyclopropyl)-amide], the IC50 falls from 50 nM to 10 nM (5-fold). The second is the more potent here.
